From patent US20220127297A1, “Novel Antibacterial 3"-Derivatives Of 4,6-Disubstituted 2,5-Dideoxystreptamine Aminoglycoside Antibiotics” (AGILeBiotics B.V., priority 2018, published 2022)
Values after ≈ are worked out from the molar mass of the structure shown. Where two headings read alike, the source gives them in different places.

How the values were obtained:
E. coli ATCC25922 strain = experiment: MIC 50, broth micro-dilution, wild-type Escherichia coli; assay type: cell-based; conditions: MH2, 18 h
Outline: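 E. coli ATCC 25922, parental or carrying resistance/vector plasmids (plasmid strains selected with 50 μg/mL kanamycin A), inoculated at OD600 0.1 in MH2 broth with two-fold compound dilutions, final 64 μM–31.3 nM, in triplicate. Incubated 18 h, 37° C, shaking. OD600 read; MIC50 = first concentration where growth reached half of maximum.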

E. coli (APH(3′)Ia) = experiment: MIC 50, broth micro-dilution, E. coli expressing APH(3′)Ia; assay type: cell-based, Escherichia coli
Outline: (§1)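 E. coli ATCC 25922 carrying plasmids encoding the named aminoglycoside-modifying enzymes, grown under kanamycin A 50 μg/mL selection and inoculated at OD600 0.1 in MH2 broth. Two-fold compound dilutions (final 64 μM–31.3 nM) in triplicate, 18 h at 37 °C; OD600 read, MIC50 = concentration giving half-maximal growth.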

[1] = tested on: E. coli (AAC(6′)Ie-APH(2″)Ia); experiment: MIC 50, broth micro-dilution, E. coli expressing AAC(6′)Ie-APH(2″)Ia; assay type: cell-based, Escherichia coli
Outline: as §1

[2] = Escherichia coli, ATCC25922, 18 h
[3] = Escherichia coli, ATCC25922, ATCC25922 harboring plasmid encoding APH(3′)Ia
[4] = Escherichia coli, ATCC25922, ATCC25922 harboring plasmid encoding AAC(6′)Ie-APH(2″)Ia
[5] = ATCC25922 harboring plasmid encoding APH(3′)Ia
[6] = ATCC25922 harboring plasmid encoding AAC(6′)Ie-APH(2″)Ia

SMILES	MIC50 (E. coli ATCC25922 strain; [2])	MIC50 (E. coli (APH(3′)Ia); [3])	MIC50 [1, 4]	MIC50 (E. coli ATCC25922 strain)	MIC50 (E. coli (APH(3′)Ia); [5])	MIC50 [1, 6]	MIC50 (E. coli ATCC25922 strain; Escherichia coli, read-out: MIC 50)
CC(C)(C)CCNC(=N)NC1[C@@H](O)C(OC2[C@@H](F)[C@H](O[C@H]3OC(CN)[C@@H](O)CC3N)C(N)C[C@H]2NC(=O)[C@@H](O)CCN)O[C@H](CO)[C@H]1O (stereo partly drawn) [ABX5025, Tobra-AHB-F-Gua 2-tBu-ethyl]	0.25 to 0.5 µM (≈ 0.174 to 0.348 µg/mL)	1 µM (≈ 0.697 µg/mL)	0.5 µM (≈ 0.348 µg/mL)				
N=C(N)N[C@@H]1[C@@H](O)[C@@H](O[C@@H]2[C@@H](O)[C@H](O[C@H]3O[C@H](CN)[C@@H](O)[C@@H](O)[C@H]3N)[C@@H](N)C[C@H]2NC(=O)[C@@H](O)CCN)O[C@H](CO)[C@H]1O [ABX4005, 3′Epi-KanaB-AHB-Gua]				4 µM (≈ 2.51 µg/mL)	16 µM (≈ 10 µg/mL)	8 µM (≈ 5.01 µg/mL)	
CNCCNC(=N)NC1[C@@H](O)C(OC2[C@@H](F)[C@H](O[C@H]3OC(CN)[C@@H](O)CC3N)C(N)C[C@H]2NC(=O)[C@@H](O)CCN)O[C@H](CO)[C@H]1O (stereo partly drawn) [ABX5038, Tobra-AHB-F-Gua 2-(methylamino)ethyl]	0.25 µM (≈ 0.167 µg/mL)	0.5 µM (≈ 0.335 µg/mL)	0.25 µM (≈ 0.167 µg/mL)				
N=C(NC[C@@H]1CCCN1)NC1[C@@H](O)C(OC2[C@@H](F)[C@H](O[C@H]3OC(CN)[C@@H](O)CC3N)C(N)C[C@H]2NC(=O)[C@@H](O)CCN)O[C@H](CO)[C@H]1O (stereo partly drawn) [ABX5026, Tobra-AHB-F-Gua (S) pyrrolidine-2-yl-methyl]	0.25 µM (≈ 0.174 µg/mL)	1 µM (≈ 0.696 µg/mL)	0.25 to 0.5 µM (≈ 0.174 to 0.348 µg/mL)				
NCCC(O)C(=O)NC1CC(N)C(OC2OC(CN)C(O)C(O)C2N)C(F)C1OC1OC(CO)C(O)C(N)C1O (stereo not drawn) [ABX4007, KanaB-AHB-F]				1 µM (≈ 0.587 µg/mL)	4 µM (≈ 2.35 µg/mL)	2 to 4 µM	
N=C(N)NC1[C@@H](O)C(OC2[C@@H](F)[C@H](O[C@H]3OC(CNCCO)[C@@H](O)CC3N)C(N)C[C@H]2NC(=O)[C@@H](O)CCN)O[C@H](CO)[C@H]1O (stereo partly drawn) [ABX5045, 6N-2-hydroxy-ethyl-Tobra-AHB-F-Gua]	1 µM (≈ 0.657 µg/mL)	1 µM (≈ 0.657 µg/mL)	0.5 µM (≈ 0.328 µg/mL)				
N=C(NCCO)NC1[C@@H](O)C(OC2[C@@H](F)[C@H](O[C@H]3OC(CN)[C@@H](O)CC3N)C(N)C[C@H]2NC(=O)[C@@H](O)CCN)O[C@H](CO)[C@H]1O (stereo partly drawn) [ABX5029, Tobra-AHB-F-Gua 2-hydroxy-ethyl]	0.5 µM (≈ 0.328 µg/mL)	2 µM (≈ 1.31 µg/mL)	0.5 to 1 µM (≈ 0.328 to 0.657 µg/mL)				
N=C(NC[C@H]1CCNC1)NC1[C@@H](O)C(OC2[C@@H](F)[C@H](O[C@H]3OC(CN)[C@@H](O)CC3N)C(N)C[C@H]2NC(=O)[C@@H](O)CCN)O[C@H](CO)[C@H]1O (stereo partly drawn) [ABX5042, Tobra-AHB-F-Gua (S) pyrrolidine-3-ylmethyl]	0.25 µM (≈ 0.174 µg/mL)	0.25 µM (≈ 0.174 µg/mL)	0.25 µM (≈ 0.174 µg/mL)				
N=C(N)NC1C(O)[C@@H](CO)OC(OC2C(F)[C@H](O[C@H]3OC(CN)[C@@H](O)CC3N)C(N)C[C@H]2NC(=O)[C@@H](O)CCN)[C@@H]1O (stereo partly drawn) [ABX5006, Tobra-AHB-F-Gua]	< 0.25 µM	0.5 µM (≈ 0.306 µg/mL)	< 0.25 µM				
NCC[C@H](O)C(=O)N[C@@H]1C[C@H](N)[C@@H](O[C@H]2O[C@H](CN)[C@@H](O)[C@H](O)[C@H]2O)[C@H](O)[C@H]1O[C@H]1O[C@H](CO)[C@@H](O)[C@H](N)[C@H]1O [Amikacin, amikacin, reference compound]		8 µM (≈ 4.68 µg/mL)	4 to 8 µM (≈ 2.34 to 4.68 µg/mL)				2 µM (≈ 1.17 µg/mL)
N=C(NCc1ccncc1)NC1[C@@H](O)C(OC2[C@@H](F)[C@H](O[C@H]3OC(CN)[C@@H](O)CC3N)C(N)C[C@H]2NC(=O)[C@@H](O)CCN)O[C@H](CO)[C@H]1O (stereo partly drawn) [ABX5048, Tobra-AHB-F-Gua pyridin-4-yl methyl]	1 µM (≈ 0.704 µg/mL)	1 µM (≈ 0.704 µg/mL)	0.5 µM (≈ 0.352 µg/mL)				
N=C(NCC1CCOC1)NC1[C@@H](O)C(OC2[C@@H](F)[C@H](O[C@H]3OC(CN)[C@@H](O)CC3N)C(N)C[C@H]2NC(=O)[C@@H](O)CCN)O[C@H](CO)[C@H]1O (stereo partly drawn) [ABX5051, Tobra-AHB-F-Gua tetrahydrofuran-3-yl methyl]	0.5 µM (≈ 0.348 µg/mL)	1 µM (≈ 0.697 µg/mL)	0.5 µM (≈ 0.348 µg/mL)				
NCC[C@H](O)C(=O)N[C@@H]1C[C@H](N)[C@@H](O[C@H]2O[C@H](CN)[C@@H](O)[C@@H](O)[C@H]2O)[C@H](O)[C@H]1O[C@H]1O[C@H](CO)[C@@H](O)[C@H](N)[C@H]1O [ABX3002, 3′Epi-KanaA-AHB]				16 to 32 µM	32 µM (≈ 18.7 µg/mL)	16 µM (≈ 9.37 µg/mL)	
N=C(NC[C@@H]1CNCCO1)NC1[C@@H](O)C(OC2[C@@H](F)[C@H](O[C@H]3OC(CN)[C@@H](O)CC3N)C(N)C[C@H]2NC(=O)[C@@H](O)CCN)O[C@H](CO)[C@H]1O (stereo partly drawn) [ABX5040, Tobra-AHB-F-Gua (S) morpholin-2-yl methyl]	0.5 µM (≈ 0.356 µg/mL)	1 µM (≈ 0.712 µg/mL)	0.25 µM (≈ 0.178 µg/mL)				
